Drawing on PubChem BioAssay (NCI), this text covers TGI and GI50 for 13 compounds.

SMILES strings stand for the structures. Where “and” joins values, the source holds several entries; their conditions need not be identical. Equal entries are not always repeated.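 How tested: cells in 96-well plates exposed to compound for 48 hours at five concentrations. GI50 marks 50% less growth. TGI: concentration producing complete growth inhibition.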

Holding throughout (assay): NCI-60 cell line screen, 48 h
Test [1] relates to NCI-H460 lung.
Test [2] concerns 786-0 renal.
For test [3], the system named is NCI-H226 lung.
Test [4] has as its system MOLT-4 leukemia.
Test [5] deals with MDA-MB-435.
The subject of test [6] is SNB-19 CNS.
Test [7] deals with IGROV1 ovarian.
The test system of test [8] is OVCAR-4 ovarian.
Test [9] has as its system NCI/ADR-RES ovarian.
Test [10] relates to MDA-MB-231 breast.
The subject of test [11] is OVCAR-8 ovarian.

For the compound `Cn1nc(-c2ccccc2)c2c(-c3ccccc3)c3cc(Cl)ccc3nc21`, the TGI in test [1], in test [2], in test [3], in [4], in test [5] and in test [6] was > 100 µM each time. In addition, the TGI is > 100 µM in test [7]; > 100 µM in test [8]; > 25.7 µM in test [9]; > 100 µM in [10]; > 100 µM in test [11].
For the compound `C=C1CC(C)(COc2cc(=O)oc3ccccc23)OC1=O` (stereo not given), the TGI in test [1] was 27.5 µM; in [2], 11.8 µM; in test [3], 29.1 µM; in test [4], 7.15 µM; in test [5], 17.7 µM; in test [6] it was 35.5 µM. Besides, the TGI came out at 12.5 µM in test [7]; 16.9 µM in [8]; 24 µM in test [9]; 23.1 µM in test [10]; 24.2 µM in test [11].
Regarding `O=C1CCCCC1C(O)(C(F)(F)F)C(F)(F)Cl` (stereo not given), the TGI in [1], in test [2], in test [3], in test [4], in [5] and in [6] was > 10 µM in each case. Moreover, the TGI in [7], in test [8], in [9], in test [10] and in test [11] was > 10 µM each time.
Consider `Fc1cccc(C2SCc3nc4cc5ccccc5cc4n32)c1` (stereo not given), for which the TGI in test [2], in test [3], in test [4], in test [5], in [6] and in [7] was > 100 µM throughout. Further, the TGI in test [8], in test [9], in [10] and in test [11] was > 100 µM each time.
As to `Cc1ccc(SCC(CF)OC(C)n2cnc3c(Cl)nc(N)nc32)cc1` (stereo not given), the TGI in test [1], in test [2], in test [3], in test [4], in [5] and in [6] was > 100 µM in each case. For the same compound, the TGI in test [7] is > 100 µM; in test [8], 52.6 µM; in test [9] it was > 100 µM; in test [10], > 100 µM; in [11] it was > 100 µM.
Take `O=C1/C(=C/c2ccc(Cl)cc2)N=C(c2ccccc2)N1/N=C/c1ccccc1O`: the TGI was 79.2 µM in test [1]; 42.1 µM in [3]; 38.9 µM in test [4]; > 100 µM in [5]; > 100 µM in [6]; 26.4 µM in test [7]. The TGI was determined as 19.9 µM in test [8], 97.6 µM in test [9], 63.3 µM in test [10] and 34.6 µM in [11].
Take `S=C(Nc1ccc2c(c1)oc1ccccc12)c1cccs1`: the TGI in test [2] was 68.9 µM; in [3], > 100 µM; in [4] it was > 100 µM; in test [5] it was > 100 µM; in test [6] it was > 100 µM; in test [7], > 100 µM. In addition, the TGI in test [8], in test [9], in test [10] and in test [11] was > 100 µM each time.
Regarding `c1ccc(-c2cc(-c3ccncc3)cc(-c3ccncc3)n2)cc1`, the TGI in test [2], in test [3], in test [4], in test [5], in test [6] and in test [7] was > 100 µM in each case. The TGI in [8], in test [9], in test [10] and in [11] was > 100 µM in each case.
With `CC(=O)O[C@H]1CC[C@@]2(C)C(=CC[C@@H]3[C@@H]2CC[C@](C)(c2nnc(C)o2)[C@H]3CC#N)C1`, the TGI in [2], in test [3], in test [4], in test [5], in test [6] and in test [7] was > 100 µM each time. Further, the TGI in test [8], in [9], in [10] and in test [11] was > 100 µM throughout.
As for `NC(Cc1ccccc1)c1nn[nH]n1` (stereo not given), the TGI in [1], in [2], in [3], in [5], in test [6] and in test [7] was > 100 µM throughout. Besides, the TGI in test [8], in test [9], in test [10] and in [11] was > 100 µM each time.
In the case of `c1ccc2cc(CNCCCCNCCCNCc3ccc4ccccc4c3)ccc2c1`, the TGI is 0.338 µM in test [1]; 0.323 µM in test [2]; 2.78 µM in test [3]; 3.1 µM in test [5]; 2.8 µM in test [6]; 1.69 µM in test [7]. Besides, the TGI in test [8] was determined as 3.08 µM; in test [9], 3.47 µM; in test [10], 3.95 µM; in test [11] it was 3.2 µM.
On to `CCOC(=O)C1=CNC(C(=O)OCC)C1c1cccn1-c1ccccc1` (stereo not given), for which the TGI in test [1] is > 100 µM; in [2] it was > 100 µM; in [3], 54.2 µM; in [4], 47.3 µM; in test [5], 57.6 µM; in test [7] it was > 100 µM. Besides, the TGI was > 100 µM in test [8], 91.4 µM in test [9], 40.1 µM in [10] and > 100 µM in test [11].
For `Nc1nc(N)c2ncn(-c3ccccc3)c2n1`, the TGI in [2], in [3], in [4], in test [5], in [6] and in [7] was > 100 µM throughout. The TGI in test [8], in test [9], in test [10] and in test [11] was > 100 µM throughout. Further, the GI50 in [8] is 21.8 µM and > 100 µM.
